Measured values taken from publication PMC8175490, “Validation of mathematical model with phosphate activation effect by batch (R)-phenylacetylcarbinol biotransformation process utilizing Candida tropicalis pyruvate decarboxylase in phosphate buffer” (Scientific Reports, 2021).

Target: T1, partially purified C. tropicalis TISTR 5350 pyruvate decarboxylase (PDC) (Candida tropicalis, UniProt C5MDS4)
T1 construct: gene CTRG_03826
Experiment: global fit of six-ODE model to batch PAC biotransformation progress curves (HPLC, enzymatic pyruvate assay)
Assay type: biochemical
Details: carboligation with benzaldehyde (30/36 and 100/120 mM benzaldehyde/pyruvate); 250 mM phosphate pH 7.0, 4 °C, 1 mM TPP, 1 mM MgSO4; partially purified enzyme; model-fitted affinity constant; sigmoidal
Description: global fit of six-ODE model to batch PAC biotransformation progress curves (HPLC, enzymatic pyruvate assay) on partially purified C. tropicalis TISTR 5350 pyruvate decarboxylase (PDC)

T1 sequence (C5MDS4 entry or part of it): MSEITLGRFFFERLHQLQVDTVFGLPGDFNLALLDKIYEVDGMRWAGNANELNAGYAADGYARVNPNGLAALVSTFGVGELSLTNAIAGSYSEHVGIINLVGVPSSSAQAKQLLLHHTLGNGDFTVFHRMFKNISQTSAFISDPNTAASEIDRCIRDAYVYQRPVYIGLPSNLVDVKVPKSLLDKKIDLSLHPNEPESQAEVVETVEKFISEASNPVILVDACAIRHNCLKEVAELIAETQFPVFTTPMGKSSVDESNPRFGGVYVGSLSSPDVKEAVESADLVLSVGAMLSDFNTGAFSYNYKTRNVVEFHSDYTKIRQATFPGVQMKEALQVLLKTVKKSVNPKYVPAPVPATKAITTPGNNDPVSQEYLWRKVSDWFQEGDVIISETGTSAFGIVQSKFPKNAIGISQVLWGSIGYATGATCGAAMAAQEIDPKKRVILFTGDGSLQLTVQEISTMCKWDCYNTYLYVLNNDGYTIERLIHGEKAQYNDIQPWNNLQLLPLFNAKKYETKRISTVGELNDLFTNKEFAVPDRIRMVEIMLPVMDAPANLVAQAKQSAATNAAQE

SMILES: O=Cc1ccccc1 [B, benzaldehyde]
- Optimized values: (1.01 ± 0.02) × 10^–4 mM^1−h
